Measurements: publication PMC7504721, “Targeting the Initiator Protease of the Classical Pathway of Complement Using Fragment-Based Drug Discovery” (Molecules, 2020)

System: alternative pathway
Experiment: Alternative pathway-specific ELISA (LPS, 20% serum, C3b detection)
Type: biochemical, human
Conditions: single dose 500 µM, triplicate
Procedure: Figure 5 Selectivity and mechanistic analysis of CMP-1611 and CMP-1696. (A) Chemical structure of CMP-1611. (B) Chemical structure of CMP-1696. (C) Dose-dependent inhibition by CMP-1611 and CMP-1696 in a classical pathway-specific ELISA. Data were fit with GraphPad Prism using non-linear regression with a log(inhibitor) vs. response model. […] (D) Complement pathway selectivity of CMP-1611 and CMP-1696. Compounds were assessed for their ability to inhibit activation of complement via the lectin and alternative pathways using single doses of 500 µM compound in triplicate. To ensure only lectin pathway activation, 2% (v/v) C1q-depleted serum (CompTech) was used and mannan was used as the activator. To match serum sources and amounts for this assay, the classical pathway assays were repeated here using serum from CompTech at 2% (v/v) final concentration. Alternative pathway activation assays were performed using 20% (v/v) serum (CompTech), alternative pathway buffers, and C3b detection (see Methods and Materials for details). […]
To carry out classical pathway ELISA-based inhibition assays, IgM was dissolved in coating buffer (100 mM Na2CO3/NaHCO3, pH 9.6) to a final concentration of 3 µg/mL and was dispensed into 96-well plates at 100 µL per well. […] The reaction was stopped with 50 µL of 0.16 M sulfuric acid, and the plate was read at 450 nm using an EnSight multimode plate reader (Perkin-Elmer). […]

Structure (SMILES): CN(C)c1cc(N2CCCC(N)C2)ncn1 (stereo not shown) [CMP-1611]
- inhibition of alternative pathway activation: no effect
